{"source": "patent US20230348487A1", "about": "“2-AMINOPYRIMIDINE COMPOUND AND PHARMACEUTICAL COMPOSITION THEREOF AND APPLICATION THEREOF” (GUANGZHOU SALUSTIER BIOSCIENCES CO., LTD., priority 2021, published 2023)", "key": {"[1]": {"tested_on": "human acute myeloid leukemia cell line U937", "assay": "CCK-8 in vitro proliferation inhibition", "type": "cell-based", "conditions": "Homo sapiens, U-937, 72 hours, read-out: Inhibitory activity (IC50) on cell proliferation, U937"}, "[2]": {"tested_on": "human chronic myeloid leukemia cell line K562", "assay": "CCK-8 in vitro proliferation inhibition", "type": "cell-based", "conditions": "Homo sapiens, K562, 72 hours, read-out: Inhibitory activity (IC50) on cell proliferation, K562"}, "[3]": {"tested_on": "JAK3-STAT signaling in U937 cells", "assay": "Western blot of JAK3-STAT signaling in U937 cells", "type": "cell-based, human", "procedure": "Cell line: human acute myeloid leukemia cell line U937\nTime dependent experiment: the tested molecule LS6-45 was co-incubated with U937 cells at a fixed concentration (100 nM), and the total cell protein was extracted at a specific action time. Dose dependent experiment: After co-incubating the tested molecule LS6-45 at different concentrations with U937 cell line for 10 hours, the total cell protein was extracted. Suspended cells U937 were centrifuged to remove the supernatant, washed twice with PBS, and then added an appropriate amount of lysate mixture (RIPA lysate (strong): phosphatase inhibitor mixture (50×): PMSF=100:1:1), lysed for 30 minutes on ice, and centrifugated at 12000 rpm at 4° C. for 15 min). Took the supernatant and discarded the sediment. Took an appropriate amount of supernatant to measure the protein concentration by the BCA method. Then added loading buffer at a 5:1 ratio and boiled at 100° C. for 7 minutes to be used for Western Blot experiments or stored in a −80° C. freezer for later use.\nThe experimental results are shown in FIG. 4, wherein the Western Blot analysis of compound LS6-45 on JAK3, STAT3, STAT5 proteins and their time/dose-dependent phosphorylation was performed, and GAPDH was used as an internal reference. In FIG. 4, A represents the U937 cell line treated with compound LS6-45 (100 nM) in a time-dependent manner, while B represents the U937 cell line treated with compound LS6-45 in a dose-dependent manner for 10 hours (diluted at five concentrations of 800 nM 1:4)."}, "U937 cells [4]": {"tested_on": "U937 cells", "assay": "Cell cycle detection in U937 cells", "type": "cell-based, human", "conditions": "24 hours", "procedure": "Cell cycle detection: Took cells in good growth status and adjusted the density to 8×10^5 cells/mL, and evenly distributed them into 6-well plates, 2 mL per well. Then the compound was diluted in gradient and added to the cell suspension, and incubated in an incubator for 24 hours. BD Cycletest™ Plus DNA Reagent Kit was used for staining in this experiment. After 24 hours, the cells were collected into a 15 mL centrifuge tube, and the 6-well plate was washed twice with PBS. The washing solutions were merged into a 15 mL centrifuge tube, centrifuged at 12000 rpm for 5 minutes, and the supernatant was discarded. Added 5 mL of buffer solution to each tube and the cells were gently resuspended. Centrifuge: 12000 rpm for 5 minutes, the supernatant was carefully removed and left about 50 μL of liquid without discarding. Added 1.5 mL of buffer solution to each tube to gently resuspend the cells, which were carefully transferred to a 1.5 mL EP tube. Adjusted the cell concentration to 1×10^6 cells/mL, to meet the requirements of 5×10^5 cells to complete this experiment. Centrifuged at 1200 rpm for 5 minutes, and the supernatant was carefully aspirated. Added 125 μL of Solution A, mixed gently and reacted at room temperature for 10 minutes. Added 100 μL of Solution B, mixed gently and reacted at room temperature for 10 minutes. […]"}, "U937 cells [5]": {"tested_on": "U937 cells", "assay": "Cell apoptosis detection in U937 cells", "type": "cell-based, human", "conditions": "48 hours", "procedure": "Cell apoptosis detection: Took cells in good growth status and adjusted the density to 8×10^5 cells/mL, evenly distributed them into 6-well plates, 2 mL per well. Then the compound was diluted in gradient and added to the cell suspension, and placed in the incubator for 48 hours. PE coupled Annexin V apoptosis detection kit was used for staining in this experiment. After 48 hours, cells were collected into a 15 mL centrifuge tube, and the 6-well plate was washed twice with PBS. The washing solutions were merged into a 15 mL centrifuge tube, centrifuged at 1200 rpm for 5 minutes, and the supernatant was discarded. The cells were washed with 1.5 mL of cold PBS and resuspended and transferred to a 1.5 mL EP tube. Repeated washing with cold PBS once and after centrifugation at 1200 rpm for 5 minutes, discarded the supernatant. Added 100 μL of 1×Binding Buffer (PBS dilution) to resuspend the cells. Added 2.5 μL of Annexin V-PE and 2.5 μL 7-AAD, mixed gently and reacted at room temperature in the dark for 15 minutes. Added 400 μL of 1× Binding Buffer, and then perform detection with an up-flow cytometry within 1 hour. Note: It is necessary to set up a single label control tube with apoptotic cells, and sample tubes with the same conditions; place the stained samples on ice."}}, "note": "pIC50: −log10 of the molar value.", "data": [{"smiles": "C=CC(=O)Nc1cc(Nc2ncc(Cl)c(O[C@@H]3CO[C@H]4[C@@H]3OC[C@H]4OC)n2)ccc1N(C)CCN(C)C", "note": "[LS 6-45]", "values": [{"measurement": "pIC50", "setting": "[1]", "value": 7.69}, {"measurement": "pIC50", "setting": "[2]", "value": 6.47}, {"measurement": "phosphorylation level of JAK3 (Western blot)", "setting": "[3]; 50 nM, 10 hours", "value": "significantly weakened"}, {"measurement": "phosphorylation level of JAK3 protein (Western blot)", "setting": "[3]; 100 nM, 4 hours", "value": "effectively reduced the phosphorylation level of JAK3 protein"}, {"measurement": "JAK3 phosphorylation (Western blot)", "setting": "[3]; 100 nM, around 8 hours", "value": "completely inhibited JAK3 phosphorylation"}, {"measurement": "phosphorylation levels of downstream proteins STAT3 and STAT5", "setting": "[3]; 100 nM, time course", "value": "weakened in a time-dependent manner"}, {"measurement": "phosphorylation level of JAK3 (Western blot)", "setting": "[3]; 200 nM, 10 hours", "value": "almost completely disappeared"}, {"measurement": "phosphorylation levels of downstream proteins STAT3 and STAT5", "setting": "[3]; different concentrations, 10 hours", "value": "dose-dependent weakening"}, {"measurement": "cell cycle related proteins (CDK2, CDK4, CDK6, Cyclin B1, Cyclin D3, Cyclin E1)", "setting": "U937 cells [4]", "value": "significantly down-regulated"}, {"measurement": "cell cycle", "setting": "U937 cells [4]; different concentrations", "value": "obvious G0/G1 phase block"}, {"measurement": "cell apoptosis", "setting": "U937 cells [5]", "value": "No apoptosis was observed"}]}]}
